Measured values taken from patent publication US20250326708A1, “LONG-ACTING SPLEEN-TARGETING CATIONIC LIPID COMPOUND COMPRISING BENZENE RING STRUCTURE, COMPOSITION COMPRISING SAME, AND USE THEREOF” (Beijing Youcarekechuang Pharmaceutical Technology Co., Ltd., priority 2024, published 2025).

Key:
[1] = Particle size and polydispersity index (PDI) of lipid nanoparticles, dynamic light scattering; type: physicochemical; settings: LNP preparation with the named cationic lipid; 90° scattering angle, 25° C
Source text: (§1) The cationic lipids listed in Table 2 were each mixed with DSPC (AVT (Shanghai) Pharmaceutical Technology Co., Ltd.), cholesterol (AVT (Shanghai) Pharmaceutical Technology Co., Ltd.), and DMG-PEG2000 in a molar ratio of 49:10:39.5:1.5 and dissolved in ethanol to prepare ethanol lipid solutions. Using the ethanol injection method, the ethanol lipid solutions were quickly added to a citrate buffer (pH between 4 and 5), and vortexed for 30 seconds for later use. eGFP-mRNA (purchased from Shanghai BioHub Biotechnology Co., Ltd.), Fluc-mRNA (purchased from Shanghai BioHub Biotechnology Co., Ltd.), or Cy5 fluorescently labeled Leqvio (purchased from Sangon Biotech (Shanghai) Co., Ltd.) was diluted in a citrate buffer (pH between 4 and 5) to obtain an mRNA aqueous solution. A certain volume of the lipid solution and the mRNA aqueous solution were mixed to prepare liposomes at a total lipid-to-mRNA weight ratio of 15:1. The mixtures were sonicated at 25° C. for 15 minutes (ultrasonic frequency: 40 kHz, ultrasonic power: 800 W). The resulting liposomes were diluted 10-fold with PBS, followed by ultrafiltration using a 300 kDa ultrafiltration tube to remove ethanol. After adjusting the volume with PBS, LNP preparations encapsulating eGFP-mRNA or Fluc-mRNA were obtained, using cationic lipids, DSPC, cholesterol, and DMG-PEG2000 at a molar ratio of 49:10:39.5:1.5.
The particle size and polydispersity index (PDI) were measured using dynamic light scattering with a Malvern laser diffraction particle size analyzer.
10 μL of liposome solution was diluted to 1 mL with RNase-free deionized water and added to the sample cell. Each sample was measured three times. The measurement conditions were as follows: 90° scattering angle, 25° C.

[2] = test system: 293T cells; test: Fluorescence detection of Fluc-mRNA (transfection efficiency) of LNP preparations; type: cell-based; settings: for Relative light unit (RLU): LNP with 0.3 μg Fluc-mRNA, 96-well plate, 24 hours
Procedure: (§2) Cell recovery and passage: 293T cells were recovered and cultured in culture dishes. The cells were passaged until the required number of cells was obtained.
(§3) Seeding plates: The cells in culture dishes were digested and counted, then seeded in a 96-well plate at 10,000 cells per well and seeded in a 12-well plate at 150,000 cells per well. The cells were cultured overnight until cell adhesion.
as §1
(§4) Cell recovery and passage: The method was the same as described in Example 3.
(§5) Seeding plates: The method was the same as described in Example 3.
LNP preparations containing 0.3 μg of Fluc-mRNA (with the vector components of the LNP preparations of cationic lipids, DSPC, cholesterol, and DMG-PEG2000 in a molar ratio of 49:10:39.5:1.5, where the cationic lipids are those listed in Table 1) were added to the cell culture medium in a 96-well plate. After 24 hours of continued culture, the corresponding reagents were added according to the instructions in the Gaussia Luciferase Assay Kit. Fluorescence intensity in each well was detected using the IVIS fluorescence detection system. The transfection efficiency of LNP preparations prepared with a series of cationic lipid compounds designed in the present disclosure, as well as cationic lipids from the prior art, including SM-102, HHMA, MC3, compound 7, and I-1, is shown in Table 4.

[3] = test system: 293T cells; test: Cell viability assay (CCK-8) with LNP preparations of Fluc-mRNA; type: cell-based; settings: LNP with 1.5 μg Fluc-mRNA, 24 hours, CCK-8
Procedure: as §2, §3, §1, §4, §5
LNP preparations containing 1.5 μg of Fluc-mRNA (with the vector components of the LNP preparations of cationic lipids, DSPC, cholesterol, and DMG-PEG2000 in a molar ratio of 49:10:39.5:1.5, where the cationic lipids are those listed in Table 1) were added to the cell culture medium in a 96-well plate. After 24 hours of continued culture, 10 μL of CCK-8 solution was added to each well, and the culture plate was incubated in an incubator for 1 hour.

[4] = test system: female BALB/C mice; test: Expression of delivered mRNA in mice in vivo (IVIS in vivo imaging); settings: 10 μg Fluc-mRNA via tail vein
Procedure: LNP preparations containing 10 μg of Fluc-mRNA were injected via the tail vein into female BALB/C mice (4 to 6 weeks old, weighing 17 to 19 g). At specified time points after administration (6 h, 24 h, 48 h, and 7 d), the mice were intraperitoneally injected with fluorescent imaging substrates and allowed to move freely for 5 minutes. The average radiation intensity (corresponding to fluorescence intensity) of proteins expressed by the mRNA delivered by the LNP preparations in the mice in vivo was then detected using the IVIS Spectrum small-animal in vivo imaging system.

[5] = test system: female BALB/C mice; test: Expression of delivered mRNA in different organs of mice (organ imaging); type: in vivo
Procedure: LNP preparations containing 5 μg of Fluc-mRNA were subcutaneously injected into female BALB/C mice (4 to 6 weeks old, weighing 17 to 19 g). At specified time points after administration (6 h), the mice were intraperitoneally injected with fluorescent imaging substrates and allowed to move freely for 5 minutes. The average radiation intensity (corresponding to fluorescence intensity) of proteins expressed by the mRNA delivered by the LNP preparations in the mice in vivo was then detected using the IVIS Spectrum small-animal in vivo imaging system. After sampling, the mice were killed by cervical dislocation and dissected, and the internal organs: heart, liver, spleen, lung, kidney, and lymph of mice were accurately isolated. The average radiation intensity (corresponding to fluorescence intensity) of proteins expressed by the mRNA delivered by the LNP preparations in various organs of mice was then detected using the IVIS Spectrum small-animal in vivo imaging system.

[6] = 6 hours after 5 μg Fluc-mRNA subcutaneously

| Compound | PDI [1] | Particle size [1] | Relative light unit (RLU) [2] | Cell viability [3] | also measured |
| --- | --- | --- | --- | --- | --- |
| CCCCCCCCC(CCCCCC)COC(=O)CCCCCN(CCCCCC(=O)OCC(CCCCCC)CCCCCCCC)CCN(CCO)c1ccccc1 (centres unmarked) [Compound 7, bis(2-hexyldecyl) 6,6′-((2-((2-hydroxyethyl) (phenyl)amino)ethyl)azanediyl)dihexanoate, reference compound] | 14.3% | 162 nm | 257490 RLU | 73% | Average radiation intensity, in vivo imaging ([4]; 6 h): 1847654; Average radiation intensity, in vivo imaging ([4]; 24 h): 185473; Average radiation intensity, in vivo imaging ([4]; 48 h): 96543; Average radiation intensity, in vivo imaging ([4]; 7 d): 8511 |
| CCCCCCCCCCCCC(O)CN(C)CCCCCC(=O)OCC(CCCCCC)CCCCCCCC (centres unmarked) [HHMA, reference compound] | 16.3% | 146 nm | 1011156 RLU | 77% |  |
| CCCCCCCCC(CCCCCC)COC(=O)CCCCCN(CCCCCC(=O)OCC(CCCCCC)CCCCCCCC)CCCCC(=O)OCc1ccccc1.I (centres unmarked) [I-1, bis(2-hexyldecyl) 6,6′-((5-(benzyloxy)-5-oxopentyl)azanediyl)dihexanoate, reference compound] | 16.2% | 158 nm | 202730 RLU | 68% |  |
| CCCCC/C=C\C/C=C\CCCCCCCCC(CCCCCCCC/C=C\C/C=C\CCCCC)OC(=O)CCCN(C)C [MC3, reference compound] | 15.7% | 151 nm | 94904 RLU | 74% |  |
| CCCCCCCCCCCOC(=O)CCCCCN(CCO)CCCCCCCC(=O)OC(CCCCCCCC)CCCCCCCC [SM-102, reference compound] | 13.5% | 145 nm | 1428141 RLU | 82% | Average radiation intensity, in vivo imaging ([4]; 6 h): 2144435; Average radiation intensity, in vivo imaging ([4]; 24 h): 314533; Average radiation intensity, in vivo imaging ([4]; 48 h): 134554; Average radiation intensity, in vivo imaging ([4]; 7 d): 9243; Average radiation intensity of mouse organs: Heart [5, 6]: 0; Average radiation intensity of mouse organs: Kidney [5, 6]: 0; Average radiation intensity of mouse organs: Liver [5, 6]: 24365; Average radiation intensity of mouse organs: Lung [5, 6]: 0; Average radiation intensity of mouse organs: Lymph [5, 6]: 0; Average radiation intensity of mouse organs: Spleen [5, 6]: 25547; Expression level in the liver, times that of YK-908 ([5]; liver, 6 h, vs YK-908): 17.12 times; Expression level in the liver, times that of YK-909 ([5]; liver, 6 h, vs YK-909): 2.67 times; Expression level in the liver, times that of YK-910 ([5]; liver, 6 h, vs YK-910): 2.13 times |
| CCCCCCCCCCOC(=O)CCCNC(CO)(CO)CCc1ccc(CCCCCCCC)cc1 [YK-903, decyl 4-((1-hydroxy-2-(hydroxymethyl)-4-(4-octylphenyl)butan-2-yl)amino) butanoate] | 15.1% | 152 nm | 25006 RLU | 47% |  |
| CCCCCCCCCCCOC(=O)CCCCCNC(CO)(CO)CCc1ccc(CCCCCCCC)cc1 [YK-905, undecyl 6-((1-hydroxy-2-(hydroxymethyl)-4-(4-octylphenyl)butan-2-yl)amino) hexanoate] | 16.9% | 135 nm | 72425 RLU | 51% |  |
| CCCCCCCCCCOC(=O)CCCN(CCCCCC(=O)OCC(CCCCCCCC)CCCCCCCC)CCNC(CO)(CO)CCc1ccc(CCCCCCCC)cc1 [YK-906, 2-octyldecyl 6-((4-(decyloxy)-4-oxobutyl) (2-((1-hydroxy-2-(hydroxymethyl)-4-(4-octylphenyl)butan-2-yl)amino)ethyl)amino) hexanoate] | 10.2% | 124 nm | 27546 RLU | 63% |  |
| CCCCCCCCCCCCCCNC(=O)CCCCCNC(CO)(CO)CCc1ccc(CCCCCCCC)cc1 [YK-907, 6-((1-hydroxy-2-(hydroxymethyl)-4-(4-octylphenyl)butan-2-yl)amino)-N-tetradecylhexanamide] | 16.2% | 159 nm | 37699 RLU | 73% |  |

Now from value to molecule, other results behind:

| PDI [1] | Particle size [1] | Compound | Relative light unit (RLU) [2] | Cell viability [3] | also measured |
| --- | --- | --- | --- | --- | --- |
| 17.4% | 162 nm | CCCCCCCCCCC(CCCCCCCCCC)CCCOC(=O)CCCCCNC(CO)(CO)CCc1ccc(CCCCCCCC)cc1 [YK-901, 4-decyltetradecyl 6-((1-hydroxy-2-(hydroxymethyl)-4-(4-octylphenyl)butan-2-yl)amino) hexanoate] | 43423 RLU | 58% |  |
| 12.4% | 142 nm | CCCCCCCCCCC(CCCCCCCCCC)CCCOC(=O)CCCNC(CO)(CO)CCc1ccc(CCCCCCCC)cc1 [YK-902, 4-decyltetradecyl 4-((1-hydroxy-2-(hydroxymethyl)-4-(4-octylphenyl)butan-2-yl)amino) butanoate] | 311132 RLU | 36% | Cellular transfection efficiency, times that of HHMA ([2]; Fluc-mRNA LNP, vs HHMA): 0.31 times; Cellular transfection efficiency, times that of I-1 ([2]; Fluc-mRNA LNP, vs I-1): 1.53 times; Cellular transfection efficiency, times that of MC3 ([2]; Fluc-mRNA LNP, vs MC3): 3.28 times; Cellular transfection efficiency, times that of SM-102 ([2]; Fluc-mRNA LNP, vs SM-102): 0.22 times; Cellular transfection efficiency, times that of YK-501 ([2]; Fluc-mRNA LNP, vs YK-501): 6.73 times; Cellular transfection efficiency, times that of YK-506 ([2]; Fluc-mRNA LNP, vs YK-506): 0.48 times; Cellular transfection efficiency, times that of compound 7 ([2]; Fluc-mRNA LNP, vs compound 7): 1.21 times |
| 8.2% | 112 nm | CCCCCCCCCCCOC(=O)CCCCCCNC(CO)(CO)CCc1ccc(CCCCCCCC)cc1 [YK-904, undecyl 7-((1-hydroxy-2-(hydroxymethyl)-4-(4-octylphenyl)butan-2-yl)amino) heptanoate] | 125048 RLU | 52% | Average radiation intensity, in vivo imaging ([4]; 6 h): 1116384; Average radiation intensity, in vivo imaging ([4]; 24 h): 115355; Average radiation intensity, in vivo imaging ([4]; 48 h): 28552; Average radiation intensity, in vivo imaging ([4]; 7 d): 3243 |
| 10.4% | 136 nm | CCCCCCCCc1ccc(CCC(CO)(CO)NCCCCCCC(=O)OCC(CCCCCCCC)CCCCCCCC)cc1 [YK-911, 2-octyldecyl 7-((1-hydroxy-2-(hydroxymethyl)-4-(4-octylphenyl)butan-2-yl)amino) heptanoate] | 1299055 RLU | 62% |  |
